Tests used:
[1] = target: T1, Serine/threonine-protein kinase D1 (Homo sapiens) (UniProt Q15139); assay: Selectivity interaction (KinomeScan (DiscoverX)) EUB0000229b PRKD1; conditions: at 10 µM
T1 sequence (whole entry): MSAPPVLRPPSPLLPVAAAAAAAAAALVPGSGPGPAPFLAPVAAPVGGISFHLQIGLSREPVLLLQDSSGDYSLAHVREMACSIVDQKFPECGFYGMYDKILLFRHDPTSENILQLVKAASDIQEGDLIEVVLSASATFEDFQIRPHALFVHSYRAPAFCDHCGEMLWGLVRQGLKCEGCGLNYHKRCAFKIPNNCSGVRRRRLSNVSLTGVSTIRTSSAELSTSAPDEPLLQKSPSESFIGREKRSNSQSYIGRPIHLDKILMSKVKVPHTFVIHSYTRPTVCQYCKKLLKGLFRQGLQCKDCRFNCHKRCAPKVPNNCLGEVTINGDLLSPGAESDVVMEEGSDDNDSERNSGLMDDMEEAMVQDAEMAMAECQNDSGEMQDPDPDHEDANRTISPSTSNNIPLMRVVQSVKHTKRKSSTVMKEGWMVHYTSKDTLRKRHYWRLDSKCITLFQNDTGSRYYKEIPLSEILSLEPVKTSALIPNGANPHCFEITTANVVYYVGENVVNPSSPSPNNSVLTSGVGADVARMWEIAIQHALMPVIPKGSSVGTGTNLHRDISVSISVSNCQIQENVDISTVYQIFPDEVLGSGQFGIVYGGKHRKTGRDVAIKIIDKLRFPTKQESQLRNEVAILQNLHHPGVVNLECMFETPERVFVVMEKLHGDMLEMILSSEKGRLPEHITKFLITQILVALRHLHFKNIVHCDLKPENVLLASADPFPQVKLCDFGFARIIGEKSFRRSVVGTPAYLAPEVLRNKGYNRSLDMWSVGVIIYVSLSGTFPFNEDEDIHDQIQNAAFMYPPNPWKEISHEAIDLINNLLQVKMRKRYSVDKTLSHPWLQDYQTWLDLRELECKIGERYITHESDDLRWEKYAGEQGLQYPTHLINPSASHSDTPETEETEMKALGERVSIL

[2] = target: Mitogen-activated protein kinase 1 (Homo sapiens, UniProt P28482); assay: Selectivity interaction (KinomeScan (DiscoverX)) EUB0000092b MAPK1; conditions: at 10 µM
Mitogen-activated protein kinase 1, sequence (P28482 whole entry): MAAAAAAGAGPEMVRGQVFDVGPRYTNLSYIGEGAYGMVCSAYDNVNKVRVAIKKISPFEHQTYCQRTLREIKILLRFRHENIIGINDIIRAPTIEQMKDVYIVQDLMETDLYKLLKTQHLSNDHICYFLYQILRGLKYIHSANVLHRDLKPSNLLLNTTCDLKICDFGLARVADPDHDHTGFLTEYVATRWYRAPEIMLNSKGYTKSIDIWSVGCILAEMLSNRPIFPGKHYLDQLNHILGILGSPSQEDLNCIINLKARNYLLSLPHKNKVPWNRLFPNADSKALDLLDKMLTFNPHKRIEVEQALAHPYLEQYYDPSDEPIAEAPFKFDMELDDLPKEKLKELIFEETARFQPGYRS

[3] = target: T2, 5-hydroxytryptamine receptor 1A (Homo sapiens) (UniProt P08908); assay: Selectivity interaction (GPCR panel (PDSP screen)) EUB0001079a HTR1A; conditions: at 10 µM
T2 sequence (whole entry): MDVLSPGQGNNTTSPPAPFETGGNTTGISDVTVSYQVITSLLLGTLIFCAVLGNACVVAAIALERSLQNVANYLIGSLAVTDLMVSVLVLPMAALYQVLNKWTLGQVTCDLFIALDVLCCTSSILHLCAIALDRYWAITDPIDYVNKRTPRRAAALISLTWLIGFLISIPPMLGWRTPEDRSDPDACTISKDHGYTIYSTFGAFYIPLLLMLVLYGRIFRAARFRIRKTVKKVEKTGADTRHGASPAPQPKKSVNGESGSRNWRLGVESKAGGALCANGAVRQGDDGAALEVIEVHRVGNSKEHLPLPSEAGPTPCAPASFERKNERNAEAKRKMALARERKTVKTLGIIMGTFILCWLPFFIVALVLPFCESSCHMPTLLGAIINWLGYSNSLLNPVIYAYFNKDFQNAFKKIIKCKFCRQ

[4] = target: Myosin light chain kinase 2, skeletal/cardiac muscle (Homo sapiens) (UniProt Q9H1R3); assay: Selectivity interaction (Kinase panel (Z-LYTE Assay)) EUB0001632a MYLK2; conditions: at 10 µM
Myosin light chain kinase 2, skeletal/cardiac muscle (Homo sapiens), sequence (Q9H1R3 whole entry): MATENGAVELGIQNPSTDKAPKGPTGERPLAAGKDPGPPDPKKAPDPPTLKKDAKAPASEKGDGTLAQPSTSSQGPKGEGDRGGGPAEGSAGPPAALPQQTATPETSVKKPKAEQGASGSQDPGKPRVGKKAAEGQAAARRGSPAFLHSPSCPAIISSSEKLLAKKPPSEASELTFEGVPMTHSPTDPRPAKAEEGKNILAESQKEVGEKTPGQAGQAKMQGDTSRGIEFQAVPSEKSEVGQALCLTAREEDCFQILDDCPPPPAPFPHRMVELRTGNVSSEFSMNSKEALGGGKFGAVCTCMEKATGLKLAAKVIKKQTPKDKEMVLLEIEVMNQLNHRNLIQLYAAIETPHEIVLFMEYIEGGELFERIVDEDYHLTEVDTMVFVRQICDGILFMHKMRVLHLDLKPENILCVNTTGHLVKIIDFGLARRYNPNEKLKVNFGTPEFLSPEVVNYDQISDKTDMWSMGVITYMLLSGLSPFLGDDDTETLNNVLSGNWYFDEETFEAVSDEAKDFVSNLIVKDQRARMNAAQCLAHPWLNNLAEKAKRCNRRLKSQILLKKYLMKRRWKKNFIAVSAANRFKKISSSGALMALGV

[5] = target: Casein kinase II subunit alpha (Homo sapiens, UniProt P68400); assay: Selectivity interaction (KinomeScan (DiscoverX)) EUB0000607a CSNK2A1; conditions: at 10 µM
Casein kinase II subunit alpha, sequence (P68400 whole entry, looked up): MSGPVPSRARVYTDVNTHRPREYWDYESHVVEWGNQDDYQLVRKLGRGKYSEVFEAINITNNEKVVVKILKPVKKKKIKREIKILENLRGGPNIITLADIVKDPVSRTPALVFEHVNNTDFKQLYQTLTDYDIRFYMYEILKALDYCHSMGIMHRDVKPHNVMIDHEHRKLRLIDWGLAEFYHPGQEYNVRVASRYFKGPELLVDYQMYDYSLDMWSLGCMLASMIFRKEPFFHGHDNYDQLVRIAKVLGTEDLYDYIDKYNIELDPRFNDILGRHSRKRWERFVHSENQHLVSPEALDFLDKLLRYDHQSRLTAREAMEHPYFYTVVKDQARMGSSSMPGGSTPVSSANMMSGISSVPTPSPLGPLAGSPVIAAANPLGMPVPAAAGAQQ

[6] = target: T3, Testis-specific serine/threonine-protein kinase 3 (Homo sapiens) (UniProt Q96PN8); assay: Selectivity interaction (KinomeScan (DiscoverX)) EUB0001049a TSSK3; conditions: at 1 µM
T3 sequence (whole entry): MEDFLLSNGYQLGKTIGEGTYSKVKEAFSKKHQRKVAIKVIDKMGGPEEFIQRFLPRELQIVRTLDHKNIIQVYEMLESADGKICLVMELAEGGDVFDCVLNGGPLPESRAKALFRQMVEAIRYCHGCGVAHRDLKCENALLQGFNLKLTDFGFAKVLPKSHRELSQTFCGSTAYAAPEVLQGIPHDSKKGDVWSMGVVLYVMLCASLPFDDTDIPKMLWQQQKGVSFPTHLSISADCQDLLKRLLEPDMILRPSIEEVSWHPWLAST

[7] = target: SRSF protein kinase 3 (Homo sapiens) (UniProt Q9UPE1); assay: Selectivity interaction (KinomeScan (DiscoverX)) EUB0000045b SRPK3
SRSF protein kinase 3 (Homo sapiens), sequence (Q9UPE1 whole entry): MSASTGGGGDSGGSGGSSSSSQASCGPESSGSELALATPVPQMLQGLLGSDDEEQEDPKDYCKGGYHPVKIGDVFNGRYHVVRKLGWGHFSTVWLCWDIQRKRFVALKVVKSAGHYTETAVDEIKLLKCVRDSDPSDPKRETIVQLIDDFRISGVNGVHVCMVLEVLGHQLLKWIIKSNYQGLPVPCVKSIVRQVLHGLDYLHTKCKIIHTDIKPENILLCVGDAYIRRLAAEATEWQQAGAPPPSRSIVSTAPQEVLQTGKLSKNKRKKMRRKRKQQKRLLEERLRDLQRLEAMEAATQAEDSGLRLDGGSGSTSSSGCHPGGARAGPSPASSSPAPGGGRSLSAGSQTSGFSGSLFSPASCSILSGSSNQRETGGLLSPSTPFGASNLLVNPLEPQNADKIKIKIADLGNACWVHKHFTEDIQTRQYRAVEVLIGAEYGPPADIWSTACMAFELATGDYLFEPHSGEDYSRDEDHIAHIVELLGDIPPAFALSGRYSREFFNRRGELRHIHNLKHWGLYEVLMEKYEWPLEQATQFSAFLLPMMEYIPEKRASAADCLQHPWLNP

[8] = target: Tyrosine-protein kinase Lyn (Homo sapiens, UniProt P07948); assay: Selectivity interaction (Ambit KINOMEscan and KiNATiv profiling in Jurkat cells) EUB0000090b LYN; type: cell-based; conditions: at 1 µM
Tyrosine-protein kinase Lyn, sequence (P07948 2-512 limits assumed): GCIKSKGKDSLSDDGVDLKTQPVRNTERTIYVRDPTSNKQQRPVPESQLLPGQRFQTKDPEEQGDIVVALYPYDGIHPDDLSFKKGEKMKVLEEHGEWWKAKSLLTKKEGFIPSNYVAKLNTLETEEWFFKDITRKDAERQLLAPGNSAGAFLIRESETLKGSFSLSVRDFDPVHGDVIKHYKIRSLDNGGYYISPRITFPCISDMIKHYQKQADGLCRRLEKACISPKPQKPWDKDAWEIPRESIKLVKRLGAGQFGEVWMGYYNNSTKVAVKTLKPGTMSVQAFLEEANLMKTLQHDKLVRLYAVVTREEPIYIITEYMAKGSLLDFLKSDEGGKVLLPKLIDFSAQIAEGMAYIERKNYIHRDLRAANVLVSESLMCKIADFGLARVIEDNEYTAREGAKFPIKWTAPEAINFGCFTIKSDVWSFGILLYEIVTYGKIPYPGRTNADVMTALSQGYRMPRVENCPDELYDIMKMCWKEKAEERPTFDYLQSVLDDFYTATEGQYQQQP

With `COc1cc(N(C)c2ccnc3ccc(C(F)(F)F)cc23)cc(OC)c1OC` as the molecule, how does the % binding [1] read?
Its % binding is 100%.

`CCC(=O)N1CCN(c2ccc(-n3c(=O)ccc4cnc5ccc(-c6cnc7ccccc7c6)cc5c43)cc2C(F)(F)F)CC1` was tested. Which % of control [2] did it give?
The % of control was 100%.

For `Nc1cnc(N2CCc3cc(S(=O)(=O)Nc4c(F)cc(Cl)cc4F)cc(N4CCCC4=O)c32)nc1` [TP-020n], which % of inhibition [3] is on record?
The % of inhibition was 4.45%.

Which % of control [4] does the source give for `Cn1cc(-n2cnc3c(NCc4nc5cc(Cl)c(Cl)cc5[nH]4)nc(N4CCOCC4)nc32)cn1` here?
Its % of control is 3.79%.

For `CNC(=O)Nc1ccc(-c2nc(N3CC4CCC(C3)O4)c3cnn(C4CCC5(CC4)OCCO5)c3n2)cc1`, which % of control [5] is on record?
The % of control was 80%.

For `COc1cc(Nc2nc(C)cc(-c3cnn4nc(OC)ccc34)n2)cc(C(F)(F)F)c1`, which % of control [6] is on record?
The % of control was 100%.

Which results are given for `C=CC(=O)Nc1cc(-n2c(=O)ccc3cnc4ccc(-c5ccc(NS(C)(=O)=O)cc5)cc4c32)ccc1C`?
% of control ([7]; at 1 µM): 100%; % of control ([7]; at 10 µM): 67%

`CN(C)C/C=C/C(=O)Nc1ccc(C(=O)N2CCCC(Nc3ncc(Cl)c(-c4c[nH]c5ccccc45)n3)C2)cc1` (centres undefined) was tested. Which % of control [8] did it give?
Its % of control is 100%.

Reference: ChEMBL document CHEMBL5465560, “Selectivity Literature for EUbOPEN Chemogenomic Library” (2024)
